# Experimental data: patent publication US7923473B2, “Aromatic compounds and their use in medical applications” (Revotar Biopharmaceuticals AG, priority 2005, dated 2011)
# Columns and labels:
# [1] = target: human L-Selectin-IgG-chimera (Homo sapiens, UniProt P14151); test: Sialyl Lewis^x Tyrosine Sulfate Assay (sLe^x TSA), L-selectin; details: inhibition of binding of selectin chimera to sLe^x-tyrosine sulfate polyacrylamide ligand complex
# Experimental: (§1) Compounds of the present invention are assayed on a molecular level for their ability to inhibit the binding of P-, L-, or E-selectin chimeric molecules to sLe^x and tyrosinesulfate residues linked to a polymeric matrix as a PSGL-1 substitute. IC50-values are determined.
# (§2) Microtiter plates are coated overnight in carbonate buffer pH9.6 with goat anti human Fc mAB (10 μg/ml). After washing in assay buffer (25 mM 4-(2-hydroxyethyl)-1-piperazineethanesulfonic acid (HEPES), 150 mM NaCl, 1 mM CaCl2 pH7.4) and blocking (3% bovine serum albumin (BSA) in assay buffer) plates are incubated for 2 h at 37° C. with human P-Selectin-IgG-chimera (0.61 nM respectively 150 ng/mL) or human L-Selectin-IgG-chimera (0.61 nM respectively 89 ng/mL) or human E-Selectin-IgG-chimera (0.61 nM respectively 131 ng/mL). 5 μl of sLe^x-tyrosine sulfate polyacrylamide (1 mg/ml) carrying 15% sLe^x, 10% Tyrosine-sulfate and 5% biotin is complexed with 20 μl Streptavidin-Peroxidase solution (1 mg/ml) and 25 μl assay buffer without CaCl2. For use in the assay, the ligand complex is diluted 1:10000 in assay buffer and further diluted 1:1 with varying amounts of compounds in assay buffer incl. 2% DMSO. This mixture is added to the wells precoated with E- or P-selectin. After incubation for 2 h at 37° C., wells are washed for six times with in assay buffer incl. 0.005% Polyoxyethylenesorbitan monolaurate (TWEEN 20), developed for 10-15 min with 20 μl 3,3′,5,5′-tetramethylbenzidine (TMB)/H202 substrate solution and stopped with 20 μl 1 M H2SO4. Bound sLe^x-Tyrosine sulfate ligand complex is determined by measuring optical density at 450 nm vs. 620 nm in a Fusion alpha-FP reader (sold from Packard Bioscience, Dreieich, Germany).
# [2] = target: T1, human E-Selectin-IgG-chimera (Homo sapiens, UniProt P16581); test: Sialyl Lewis^x Tyrosine Sulfate Assay (sLe^x TSA), E-selectin; details: inhibition of binding of selectin chimera to sLe^x-tyrosine sulfate polyacrylamide ligand complex
# T1 sequence (P16581 with tags, fused parts or gaps limits assumed): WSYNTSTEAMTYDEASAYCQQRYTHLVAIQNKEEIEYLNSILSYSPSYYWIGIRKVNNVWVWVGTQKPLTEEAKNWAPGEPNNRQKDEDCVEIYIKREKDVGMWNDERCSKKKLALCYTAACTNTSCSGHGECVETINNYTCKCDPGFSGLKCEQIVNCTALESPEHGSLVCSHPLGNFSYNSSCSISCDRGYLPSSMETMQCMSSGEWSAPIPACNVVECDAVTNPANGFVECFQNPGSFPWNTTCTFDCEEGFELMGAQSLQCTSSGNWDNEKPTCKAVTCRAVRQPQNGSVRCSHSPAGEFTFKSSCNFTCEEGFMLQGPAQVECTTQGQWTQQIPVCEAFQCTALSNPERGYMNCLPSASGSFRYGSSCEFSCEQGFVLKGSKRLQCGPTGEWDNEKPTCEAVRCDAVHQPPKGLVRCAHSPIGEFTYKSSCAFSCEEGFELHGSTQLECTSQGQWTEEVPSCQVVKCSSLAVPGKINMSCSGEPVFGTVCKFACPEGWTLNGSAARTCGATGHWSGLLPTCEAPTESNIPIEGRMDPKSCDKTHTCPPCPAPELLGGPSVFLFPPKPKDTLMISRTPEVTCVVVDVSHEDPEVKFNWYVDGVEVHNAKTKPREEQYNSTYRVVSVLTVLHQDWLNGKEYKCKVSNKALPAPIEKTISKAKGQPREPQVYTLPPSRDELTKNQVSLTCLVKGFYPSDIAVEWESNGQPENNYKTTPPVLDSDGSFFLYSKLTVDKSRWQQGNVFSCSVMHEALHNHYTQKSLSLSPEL
# Experimental: as §1, §2
# [3] = target: T2, human P-Selectin-IgG-chimera (Homo sapiens, UniProt P16109); test: Sialyl Lewis^x Tyrosine Sulfate Assay (sLe^x TSA), P-selectin; details: inhibition of binding of selectin chimera to sLe^x-tyrosine sulfate polyacrylamide ligand complex
# T2 sequence (P16109 with tags, fused parts or gaps limits assumed): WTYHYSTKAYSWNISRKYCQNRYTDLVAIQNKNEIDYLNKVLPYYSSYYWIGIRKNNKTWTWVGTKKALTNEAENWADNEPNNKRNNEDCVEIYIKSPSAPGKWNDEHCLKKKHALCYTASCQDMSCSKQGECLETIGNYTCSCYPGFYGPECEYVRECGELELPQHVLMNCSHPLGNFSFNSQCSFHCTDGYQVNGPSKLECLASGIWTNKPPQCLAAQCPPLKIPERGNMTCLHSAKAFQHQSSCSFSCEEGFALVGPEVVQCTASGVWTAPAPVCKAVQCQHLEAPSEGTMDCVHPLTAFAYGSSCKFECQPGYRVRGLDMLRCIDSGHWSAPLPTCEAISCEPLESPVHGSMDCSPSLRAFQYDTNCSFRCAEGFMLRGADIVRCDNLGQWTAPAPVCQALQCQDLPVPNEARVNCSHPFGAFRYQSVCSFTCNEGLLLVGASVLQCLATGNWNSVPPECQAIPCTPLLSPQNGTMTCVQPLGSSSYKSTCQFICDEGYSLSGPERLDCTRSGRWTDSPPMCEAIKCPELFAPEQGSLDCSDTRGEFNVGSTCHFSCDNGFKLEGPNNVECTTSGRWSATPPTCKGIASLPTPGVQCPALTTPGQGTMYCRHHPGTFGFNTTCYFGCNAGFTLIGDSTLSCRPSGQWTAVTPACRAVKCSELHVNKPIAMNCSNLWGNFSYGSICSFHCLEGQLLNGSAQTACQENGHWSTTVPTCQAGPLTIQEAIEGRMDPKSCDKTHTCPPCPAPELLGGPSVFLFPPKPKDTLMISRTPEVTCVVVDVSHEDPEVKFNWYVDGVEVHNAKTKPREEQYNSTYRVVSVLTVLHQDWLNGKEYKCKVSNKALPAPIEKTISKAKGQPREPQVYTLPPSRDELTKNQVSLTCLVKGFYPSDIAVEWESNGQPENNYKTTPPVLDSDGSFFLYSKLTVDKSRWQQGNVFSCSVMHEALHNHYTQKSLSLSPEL
# Experimental: as §1, §2
# [4] = target: T1, human E-Selectin-IgG-chimera; test: Flow chamber assay / cell adhesion and rolling under flow conditions, E-selectin; type: cell-based; details: 125 μM compound; HL-60 cells; flow shear 1 dyne/cm^2; attached cells after 5 minutes continuous flow
# Experimental: (§3) To assess the capability of compounds to inhibit cell binding under dynamic conditions resembling the flow in a blood vessel, flow chamber assays addressing/testing binding of HL-60 cells/various cell lines to P-selectin, L-selectin and E-selectin chimeric molecules are performed.
# (§4) Cell attachment under flow conditions are determined using a parallel flow chamber system. A 35 mm polystyrene culture dish is coated for 1 hour at room temperature with coating buffer (50 mM tris-(hydroxymethyl)aminomethane buffer (Tris), 150 mM NaCl, 2 mM CaCl2; pH 7.4) containing human E- or P-selectin-IgG chimera at concentrations of 2.5 μg/ml or 10 μg/ml, respectively. After removal of the coating solution non specific binding sites are blocked for an additional hour with 1% BSA in coating buffer at room temperature. After washing with assay buffer (“Roswell Park Memorial Institute 1640” (RPMI 1640)+10 mM HEPES) the dish is fitted into a parallel plate laminar flow chamber (sold from Glycotech, Rockville, Md.) and mounted on an inverted phase-contrast microscope (sold from Olympus, Hamburg, Germany) equipped with a CCD camera (JVC) that is connected to a PC. Employing a peristaltic pump (sold from Ismatec, Wertheim-Mondfeld, Germany) the re-circulating system is equilibrated with assay buffer containing 125 μM compound or vehicle control (DMSO). Cells (1 million/ml) are added to the chamber and allowed to distribute for 2 minutes at a high flow rate. The flow rate is then decreased resulting in a calculated flow shear of 1 dyne/cm^2. Video sequences of 10 low power fields are digitally recorded after 5 minutes continuous flow. The percentage of modulation is calculated from the mean number of cells per field that attached to the coated dish surface in the presence versus absence of compound of […].
# [5] = target: T2, human P-Selectin-IgG-chimera; test: Flow chamber assay / cell adhesion and rolling under flow conditions, P-selectin; type: cell-based; details: 125 μM compound; HL-60 cells; flow shear 1 dyne/cm^2; attached cells after 5 minutes continuous flow
# Experimental: as §3, §4
# human L-Selectin-IgG-chimera, sequence (P14151 with tags, fused parts or gaps limits assumed): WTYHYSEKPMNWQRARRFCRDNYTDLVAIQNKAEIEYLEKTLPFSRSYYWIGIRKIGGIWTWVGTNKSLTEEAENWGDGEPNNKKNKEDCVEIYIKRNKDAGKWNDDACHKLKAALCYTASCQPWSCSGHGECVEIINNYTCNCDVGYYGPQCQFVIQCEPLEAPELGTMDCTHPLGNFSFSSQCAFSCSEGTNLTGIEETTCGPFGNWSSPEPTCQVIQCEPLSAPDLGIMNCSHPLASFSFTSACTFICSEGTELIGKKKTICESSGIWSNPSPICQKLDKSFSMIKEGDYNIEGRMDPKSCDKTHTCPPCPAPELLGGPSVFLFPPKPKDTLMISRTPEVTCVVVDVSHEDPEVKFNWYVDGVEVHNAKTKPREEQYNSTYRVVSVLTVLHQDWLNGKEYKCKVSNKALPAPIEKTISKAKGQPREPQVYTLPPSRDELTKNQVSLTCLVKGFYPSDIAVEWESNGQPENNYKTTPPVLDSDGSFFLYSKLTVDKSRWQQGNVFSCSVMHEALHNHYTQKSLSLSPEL
Structure (SMILES),IC50 [1],IC50 [2],IC50 [3],E-Selectin normalized ratio of %-inhibition of compound divided by %-inhibition of bimosiamose [4],P-Selectin normalized ratio of %-inhibition of compound divided by %-inhibition of bimosiamose [5]
"O=C(O)Cc1cccc(-c2cc(CCCCCCc3ccc(O[C@H]4O[C@H](CO)[C@@H](O)[C@H](O)[C@@H]4O)c(-c4cccc(CC(=O)O)c4)c3)ccc2O[C@H]2O[C@H](CO)[C@@H](O)[C@H](O)[C@@H]2O)c1 [Bimosiamose, bimosiamose, reference compound]",> 500 µM,,,,
COc1cc(CCC(=O)Nc2cccc(N)c2)cc(OC)c1OC [Compound 60],12.8 µM,18.2 µM,15 µM,,
COc1ccc(-c2cccc(C(=O)Nc3ccccc3-c3ccc(CC(=O)O)s3)c2)c(OC)c1OC [Compound 61],385 µM,> 500 µM,186 µM,,
CCOC(=O)c1cc(-c2ccc(NC(=O)Cc3ccc(OC)c(OC)c3OC)cc2)oc1C [Compound 62],45.3 µM,74.7 µM,46.4 µM,,
COc1ccc(-c2cc(C(=O)Nc3ccccc3-c3ccc(CC(=O)O)s3)cc([N+](=O)[O-])c2)c(OC)c1OC [Compound 63],76.1 µM,> 500 µM,28.5 µM,1.46 Ratio,1.06 Ratio
COc1ccc(-c2cccc(C(=O)Nc3ccccc3-c3ccc(C(=O)O)s3)c2)c(OC)c1OC [Compound 64],383 µM,> 500 µM,107 µM,1.27 Ratio,1.01 Ratio
"COc1ccc(-c2cccc(C(=O)Nc3ccccc3-c3ccc(Cc4nnn[nH]4)s3)c2)c(OC)c1OC [Compound 87, 2′,3′,4′-Trimethoxy-biphenyl-3-carboxylic acid {2-[5-(1H-tetrazol-5-ylmethyl)-thiophen-2-yl]-phenyl}-amide]",59.5 µM,,32.6 µM,1.23 Ratio,2.62 Ratio
